The results in this text go back to publication PMC9485725, “The AIRE G228W mutation disturbs the interaction of AIRE with its partner molecule SIRT1” (Frontiers in Immunology, 2022).

For this test, the target named is T1, human SIRT1 (Homo sapiens, UniProt Q96EB6).
T1 construct: purchased Sigma–Aldrich S8846
T1 sequence (Q96EB6 1-747): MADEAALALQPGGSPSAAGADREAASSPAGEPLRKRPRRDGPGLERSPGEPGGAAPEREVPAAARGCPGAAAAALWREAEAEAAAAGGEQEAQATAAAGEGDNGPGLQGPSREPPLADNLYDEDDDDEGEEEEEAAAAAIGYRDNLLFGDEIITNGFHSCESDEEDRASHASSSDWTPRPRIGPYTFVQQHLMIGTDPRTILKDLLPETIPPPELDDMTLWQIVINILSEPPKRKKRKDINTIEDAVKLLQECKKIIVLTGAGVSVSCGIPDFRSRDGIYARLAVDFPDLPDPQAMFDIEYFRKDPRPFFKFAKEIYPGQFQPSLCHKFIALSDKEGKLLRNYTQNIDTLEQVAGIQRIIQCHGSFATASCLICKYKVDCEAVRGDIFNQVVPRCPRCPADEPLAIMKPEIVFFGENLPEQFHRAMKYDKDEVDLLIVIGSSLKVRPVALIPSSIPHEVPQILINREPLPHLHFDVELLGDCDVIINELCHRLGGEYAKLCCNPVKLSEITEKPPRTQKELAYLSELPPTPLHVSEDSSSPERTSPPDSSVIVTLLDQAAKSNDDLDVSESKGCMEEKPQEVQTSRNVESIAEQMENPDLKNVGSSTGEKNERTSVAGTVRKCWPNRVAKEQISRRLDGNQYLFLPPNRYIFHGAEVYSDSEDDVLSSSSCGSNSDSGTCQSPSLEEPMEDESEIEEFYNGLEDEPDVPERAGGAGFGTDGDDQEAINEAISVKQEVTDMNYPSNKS
The test can be described thus: Surface plasmon resonance (Biacore T200) of SAND peptides on immobilized SIRT1. The note with it: for binding kinetics (association and dissociation) with SIRT1: SPR sensorgrams, 20, 100, 200 µM, dissociation time 1200 s; for binding kinetics (association and dissociation) with SIRT1 / association with SIRT1: contact time 300 s; for binding kinetics (association and dissociation) with SIRT1 / affinity (as seen through binding and dissociation) with SIRT1: in words; for association with SIRT1 / association with SIRT1 with increasing peptide concentration / affinity (as seen through binding and dissociation) with SIRT1: SPR; for association with SIRT1: Biacore T200, CM5 chip, human SIRT1 immobilized in 10 mM sodium acetate pH 4.0 plus 20 µM NAD+, peptides (K222 acetylated) 20, 100, 200 μM, 20 μl/min, described in words; for association with SIRT1 with increasing peptide concentration: six peptide concentrations 10, 15, 20, 50, 100, 200 µM plus control 0 µM, Supplementary Figure 1; for affinity (as seen through binding and dissociation) with SIRT1: wild-type versus mutant peptide. The format is binding. The protocol:
The surface plasmon resonance (SPR) experiments were performed on Biacore Model T200 equipment (GE Healthcare Biosciences, Uppsala, Sweden). For the immobilization of human SIRT1 (catalog number S8846, Sigma–Aldrich, Saint Louis, MO), a CM5 sensor chip S series (GE Healthcare Biosciences) has carboxylic groups available for covalent coupling was used. All solutions used were purchased from the equipment supplier (GE Healthcare Biosciences). The procedures described here were performed automatically with the Biacore instrument using pre-established programs for binding amines in peptides or proteins.
Briefly, the carboxylic groups on the CM5 sensor chip surface were activated with EDC + NHS, forming the NHS ester reactive intermediate, which, after washing with HBS-N, readily reacted with amines dissolved in the immobilization solution. The human SIRT1 ligand was dissolved in 10 mM sodium acetate pH 4.0 plus 20 µM NAD+ (catalog number N1636, beta-nicotinamide adenine dinucleotide hydrate, Sigma–Aldrich), which was immobilized onto the Biacore sensor chip according to the manufacturer´s instructions.
To detect interactions between SIRT1 and AIRE WT or AIRE G228W mutant SAND domain peptides, different concentrations of peptides were injected onto the CM5 chip with immobilized SIRT1 protein. […] The surface was regenerated between samples by injecting 2.0 M glycine pH 2.0 (30 s, 30 μl/min) followed by injection of 2.0 M NaCl (30 s, 30 μl/min). The stabilization period between injections after regeneration was 200 s.
The respective sequences of the twenty-amino acid peptide residues (Synbio Technologies, Monmouth Junction, NJ, USA) comprising positions 211 to 230 of the SAND domain of the human AIRE protein are as follows: from the C to N-terminus, AIRE wild-type ([…]) and AIRE G228W mutant ([…]). The underlined K residue represents the position where the acetyl radical was added. The experiment determined whether the K residue underlined was acetylated or not. The AIRE wild-type or AIRE G228W mutation data are available through GenBank NCBI (https://www.ncbi.nlm.nih.gov/) accession numbers (NM_000383.4): c.682G>T G [GGG] > W [TGG], coding sequence variant autoimmune regulator (NP_000374.1): p. Gly228TrpG (Gly) > W missense variant, DbSNP (https://www.ncbi.nlm.nih.gov/snp/rs121434257) and ClinVar (https://www.ncbi.nlm.nih.gov/clinvar/variation/3313/).
Kinetic data were analyzed with Anabel Analysis of Binding Events software ([32]), available at (www.skscience.org/anabel). Data obtained with the different concentrations of AIRE WT or mutant peptides were combined in the same graph.

As for “IQQVFESGGSKKCIQVGGEF [wild-type SAND G228 peptide, twenty-amino acid peptide comprising positions 211 to 230 of the SAND domain of the human AIRE protein, wild-type]”, the “association with SIRT1” value is “more significant association capacity”; the “association with SIRT1 with increasing peptide concentration” value was “progressive increase in the association”; the “affinity (as seen through binding and dissociation) with SIRT1” value is recorded as “stronger affinity”. Further, the “binding kinetics (association and dissociation) with SIRT1” value (listed as WT AIRE SAND peptide (Gly228)) was “associated and dissociated with SIRT1 throughout the analysis”. In addition, for the setting “listed as wild-type SAND domain peptide”, the “binding kinetics (association and dissociation) with SIRT1” value is “bound faster and dissociated longer”.

For “IQQVFESGGSKKCIQVGWEF [mutant W228 SAND peptide, twenty-amino acid peptide comprising positions 211 to 230 of the SAND domain of the human AIRE protein, G228W mutant]”, the “association with SIRT1” value was “less able to associate with SIRT1”; the “association with SIRT1 with increasing peptide concentration” value is given as “not observed”; the “affinity (as seen through binding and dissociation) with SIRT1” value is on record as “weaker association”. The “association with SIRT1” value (listed as G228W mutant peptide) was “weaker association”. Besides, the “association with SIRT1” value (listed as mutant AIRE SAND peptide (Trp228)) is “lesser association affinity”.
